Test [1] concerns the target T1, Glucose-dependent insulinotropic receptor (Homo sapiens, UniProt Q8TDV5).
T1 sequence (Q8TDV5 whole entry): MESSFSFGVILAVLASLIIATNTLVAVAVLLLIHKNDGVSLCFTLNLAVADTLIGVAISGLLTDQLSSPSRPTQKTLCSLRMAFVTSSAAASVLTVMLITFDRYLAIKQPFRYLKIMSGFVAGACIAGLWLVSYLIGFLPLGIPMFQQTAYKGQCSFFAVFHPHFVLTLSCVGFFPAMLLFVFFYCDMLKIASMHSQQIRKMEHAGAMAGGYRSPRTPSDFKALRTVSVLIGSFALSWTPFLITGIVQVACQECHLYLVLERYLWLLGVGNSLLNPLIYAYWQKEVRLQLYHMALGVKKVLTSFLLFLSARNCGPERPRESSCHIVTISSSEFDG
The experiment in a line: Agonist activity at human GPR119 receptor expressed in CHO-K1 cells assessed as cAMP accumulation after 30 mins by HTRF assay. The test is classed as functional, cell-based. On the technique in general: Changes in cAMP serve as a functional read-out for many G protein-coupled receptors.

Test [2] deals with T2, Glucose-dependent insulinotropic receptor (Homo sapiens) (UniProt Q8TDV5).
T2 sequence (whole entry): T1 sequence (Q8TDV5 whole entry)
The experiment in a line: Agonist activity at human GPR119 receptor expressed in CHO-K1 cells assessed as cAMP accumulation after 30 mins by HTRF assay relative to AR231453. The test is classed as functional, cell-based.

In test [3] the target is T3, Glucose-dependent insulinotropic receptor (Mus musculus, UniProt Q7TQP3).
T3 sequence (Q7TQP3 whole entry): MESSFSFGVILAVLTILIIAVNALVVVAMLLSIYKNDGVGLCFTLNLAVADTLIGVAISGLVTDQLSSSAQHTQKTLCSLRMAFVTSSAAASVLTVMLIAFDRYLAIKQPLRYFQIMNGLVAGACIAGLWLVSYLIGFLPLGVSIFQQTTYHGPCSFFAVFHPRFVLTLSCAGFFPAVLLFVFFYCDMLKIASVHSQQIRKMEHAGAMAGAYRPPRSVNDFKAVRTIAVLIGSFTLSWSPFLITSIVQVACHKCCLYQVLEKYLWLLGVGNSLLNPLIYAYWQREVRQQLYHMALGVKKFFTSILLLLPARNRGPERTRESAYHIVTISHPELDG
The experiment in a line: Agonist activity at mouse GPR119 receptor expressed in CHO-K1 cells assessed as cAMP accumulation after 30 mins by HTRF assay. It counts as functional, cell-based.

The target of test [4] is T4, Glucose-dependent insulinotropic receptor (Mus musculus) (UniProt Q7TQP3).
T4 sequence (whole entry): T3 sequence (Q7TQP3 whole entry)
The experiment in a line: Agonist activity at mouse GPR119 receptor expressed in CHO-K1 cells assessed as cAMP accumulation after 30 mins by HTRF assay relative to AR231453. It counts as functional, cell-based.

The subject of test [5] is Mus musculus. In words: Antidiabetic activity in po dosed fasted C57BL/6j mouse assessed as decrease in glucose excursion administered 30 mins prior to oral glucose-challenge by oral glucose tolerance test. The test is classed as functional, organism-based.
Test [6] relates to Mus musculus. In words: Antidiabetic activity in fasted C57BL/6j mouse assessed as decrease in glucose excursion at 3 mg/kg, po administered 30 mins prior to oral glucose-challenge measured after 120 mins by oral glucose tolerance test. The test is classed as functional. More on the design: scale not given: the % may be the effect or the level left.
Test [7] deals with Mus musculus. In words: Antidiabetic activity in fasted C57BL/6j mouse assessed as decrease in glucose excursion at 10 mg/kg, po administered 30 mins prior to oral glucose-challenge measured after 120 mins by oral glucose tolerance test. It counts as functional. More on the design: scale not given: the % may be the effect or the level left.
Test [8] relates to Mus musculus. The experiment in a line: Antidiabetic activity in fasted C57BL/6j mouse assessed as decrease in glucose excursion at 10 mg/kg, po administered 30 mins prior to subcutaneous glucose-challenge after 120 mins by subcutaneous glucose tolerance test. The test is classed as functional. More on the design: scale not given: the % may be the effect or the level left.
For test [9], the system named is Mus musculus. The experiment in a line: Antidiabetic activity in fasted C57BL/6j mouse assessed as increase in plasma GLP-1 level at 30 mg/kg, po after 30 mins by ELISA relative to control. The test is classed as functional. In general terms: In an ELISA, binding on a coated surface is turned into a signal by an enzyme label.
For test [10], the target named is T2, Glucose-dependent insulinotropic receptor (Homo sapiens). In words: Agonist activity at human GPR119 receptor expressed in CHO-K1 cells assessed as cAMP accumulation at 10 uM after 30 mins by HTRF assay. The test is classed as functional, cell-based.
Test [11] shares this target. In words: Agonist activity at human GPR119 receptor expressed in CHO-K1 cells assessed as cAMP accumulation at 1 uM after 30 mins by HTRF assay. The test is classed as functional, cell-based.

The structures appear in SMILES notation.

As for `CCc1cnc(N2CCC(CCCNc3ccc4c(c3)C(=O)CC4)CC2)nc1`, the figures for the EC50 in [1] and in test [3] were 51 nM and 167 nM, respectively. Also, the figures for the Emax in test [2] and in test [4] were 113% and 110%, respectively. Moreover, the Activity entry in test [5] is “Dose-dependent effect”; in test [6], 29%; in [7] it was 38%; in test [8] it was 32%. For the same compound, in test [9], the “fold change (FC)” value is above 2.

With `CC(C)(C)OC(=O)N1CCC(CCCCNc2ccc3c(c2)CCS3(=O)=O)CC1`, the EC50 in test [1] is 210 nM. In addition, the Emax in test [2] was found to be 62%.

For the compound `CC(C)c1noc(N2CCC(CCCNc3ccc4c(c3)OCC4=O)CC2)n1`, the EC50 in test [1] turned out to be 73 nM. In addition, the maximal effect (Emax) in test [2] came out at 94%.

Consider `CC(C)(C)OC(=O)N1CCC(CCCNc2ccc3c(c2)C(=O)NC3)CC1`, for which the 50% effective concentration (EC50) stood at 734 nM in test [1] and 892 nM in test [3]. Also, the Emax in test [2] came to 89%; in test [4], 97%.

In the case of `CC(C)(C)OC(=O)N1CCC(CCCOc2ccc3c(c2)CCS3(=O)=O)CC1`, the EC50 in [1] came to 736 nM. For the same compound, the Emax in [2] was determined as 84%.

With `CC(C)(C)OC(=O)N1CCC(CCCNc2ccc3c(c2)CCS3(=O)=O)CC1`, the EC50 in test [1] is 270 nM; in test [3], 224 nM. Moreover, the Emax in test [2] came to 80%; in test [4] it was 83%.

For `CC(C)c1nnc(N2CCC(CCCNc3ccc4c(c3)OCC4=O)CC2)o1`, the EC50 was 704 nM in [1] and 1020 nM in test [3]. The maximal effect (Emax) was 85% in test [2] and 88% in test [4].

For `CC(C)(C)OC(=O)N1CCC(CCCNc2ccc3c(c2)C(=O)CC3)CC1`, the EC50 stood at 46 nM in [1] and 123 nM in test [3]. Further, the Emax in test [2] amounted to 98%; in test [4], 110%.

Take `CN(CCNc1ccc2c(c1)CCS2(=O)=O)C1CCN(C(=O)OC(C)(C)C)CC1`: the Activity in test [10] was 10%. Moreover, in test [2], the maximum response (Emax) turned out to be 10%.

For the compound `CC(C)(C)OC(=O)N1CCC(CCCNc2ccc3c(c2)OCCS3(=O)=O)CC1`, the EC50 in test [1] came to 511 nM. Besides, the Emax in [2] stood at 81%.

On to `CC(C)(C)OC(=O)N1CCC(OCCNc2ccc3c(c2)CCS3(=O)=O)CC1`, for which the Activity in [11] was determined as 33%. Besides, the Emax in [2] was found to be 33%.

With `CC(C)(C)OC(=O)N1CCC(CCCNc2ccc3c(c2)CCCCC3=O)CC1`, in [1], the EC50 came out at 770 nM. The Emax in test [2] was 38%.

For `CC(C)(C)OC(=O)N1CCC(CCCNc2ccc3c(c2)C(=O)CO3)CC1`, the EC50 was 88 nM in [1] and 262 nM in test [3]. Further, the maximum response (Emax) in [2] is 95%; in [4] it was 116%.

As to `CC(C)(C)OC(=O)N1CCC(CCCC(=O)Nc2ccc3c(c2)CCS3(=O)=O)CC1`, the 50% effective concentration (EC50) in [1] was 2610 nM. Moreover, the Emax in test [2] was 56%.

In the case of `CC(C)(C)OC(=O)N1CCC(CCCNc2ccc3c(c2)OCS3(=O)=O)CC1`, the EC50 in [1] is 254 nM; in test [3] it was 266 nM. Besides, the Emax stood at 93% in [2] and 105% in test [4].

Take `CC(C)(C)OC(=O)N1CCC(CCCNc2ccc3c(c2)C(=O)CCO3)CC1`: the EC50 in test [1] amounted to 272 nM; in [3] it was 351 nM. The Emax came to 100% in test [2] and 108% in [4].

As to `CC(C)(C)OC(=O)N1CCC(CCCNc2ccc3c(c2)S(=O)(=O)CC3)CC1`, the EC50 in test [1] was determined as 1030 nM. For the same compound, in [2], the Emax is 25%.

`CC(C)c1nsc(N2CCC(CCCNc3ccc4c(c3)OCC4=O)CC2)n1`: the EC50 in test [1] came to 121 nM; in test [3], 812 nM. Also, the Emax in [2] was 10%; in [4], 93%.

Turning to `CC(C)(C)OC(=O)N1CCC(CCCNc2ccc3c(c2)CCC3=O)CC1`, the EC50 in test [1] amounted to 86 nM; in test [3], 87 nM. The Emax in test [2] was determined as 85%; in [4], 105%.

Turning to `CC(C)c1nc(N2CCC(CCCNc3ccc4c(c3)OCC4=O)CC2)no1`, the EC50 in test [1] turned out to be 161 nM. Further, in test [2], the Emax stood at 91%.

On to `CC(C)(C)OC(=O)N1CCC(CCCNc2ccc3c(c2)CNC3=O)CC1`, for which the EC50 worked out at 550 nM in test [1] and 515 nM in test [3]. In addition, the Emax in [2] was found to be 91%; in test [4] it was 102%.

As to `COC(=O)c1cnc(N2CCC(CCCNc3ccc4c(c3)OCC4=O)CC2)nc1`, the 50% effective concentration (EC50) in test [1] is 149 nM; in test [3], 139 nM. Further, the Emax was 85% in test [2] and 67% in test [4].

Regarding `CC(C)(C)OC(=O)N1CCC(CCCNc2ccc3c(c2)NNS3(=O)=O)CC1`, the figures for the EC50 in test [1] and in test [3] were 268 nM and 331 nM, respectively. For the same compound, the Emax in test [2] came to 99%; in test [4], 95%.

Take `CC(C)c1noc(N2CCC(CCCNc3ccc4c(c3)C(=O)CC4)CC2)n1`: the EC50 in [1] came out at 58 nM; in test [3], 158 nM. In addition, the Emax in test [2] was determined as 110%; in test [4], 113%.

Consider `CC(C)(C)OC(=O)N1CCC(CCCCCNc2ccc3c(c2)CCS3(=O)=O)CC1`, for which the EC50 in [1] was determined as 145 nM. Besides, the Emax in test [2] was 65%.

Regarding `COc1cnc(N2CCC(CCCNc3ccc4c(c3)OCC4=O)CC2)nc1`, the EC50 in test [1] is 115 nM; in [3], 60 nM. For the same compound, the Emax amounted to 101% in test [2] and 106% in test [4].

As for `CC(C)(C)OC(=O)N1CCC(CCCNc2ccc3c(c2)OCC3=O)CC1`, the EC50 in test [1] amounted to 52 nM; in test [3], 66 nM. The values for the Emax in test [2] and in test [4] were 94% and 108%, respectively.

Turning to `CCc1cnc(N2CCC(CCCNc3ccc4c(c3)OCC4=O)CC2)nc1`, the results for the EC50 in [1] and in [3] were 117 nM and 159 nM, respectively. Besides, the maximal effect (Emax) in test [2] came out at 115%; in test [4], 98%.

A word on the EC50: it is the concentration that produces a half-maximal response. For orientation: Emax means the greatest response seen or fitted, relative to the assay's reference.
